PubChem BioAssay AID1996
In brackets after ≈: the same amount, converted by molar mass.

Conditions: buffer; pH 7.4; 200.0 µM

| Compound | solubility kinetic [µg/mL] |
| --- | --- |
| Cc1ccsc1C(=O)OCC(=O)NCCc1ccccc1 | 10.4 (≈ 34.3 µM) |
| CC(=O)OCC[N+](C)(C)C.[Cl-] | > 27.2 |
| O=C(Nc1ccc(F)c(Cl)c1)N1CCCCCC1 | 5.8 (≈ 21.4 µM) |
| CCc1cc(C(=O)N2CCCc3ccccc32)sc1C | 9.7 (≈ 34 µM) |
| CC(C)N(Cc1ccccc1)C(=O)c1ccc2nsnc2c1 | 38.2 (≈ 123 µM) |
| CCCOc1ccccc1NC(=O)c1ccc([N+](=O)[O-])cc1 | 4.1 (≈ 13.7 µM) |
| COc1ccc(C)cc1Nc1nc(-c2ccccc2O)nc2ccccc12 | < 0.3 |
| O=C(N/N=C/c1ccccn1)C(O)c1ccccc1 (stereo not given) | > 38.3 |
| COc1cccc(CC(=O)Nc2nc3c(s2)C(=O)CC(C)(C)C3)c1 | 1.8 (≈ 5.23 µM) |
| Cc1ccc(NC(=O)c2cnccn2)c(C)c1 | 32.7 (≈ 144 µM) |
| CCOC(=O)Cc1csc(NC(=O)Cc2ccc(C)cc2)n1 | 45.2 (≈ 142 µM) |
| COc1ccc(CNc2cc(C)nc3ccc(OC)cc23)cc1 | 37.8 (≈ 123 µM) |
| O=C(CC1NCCNC1=O)NC1Cc2ccccc2C1 (stereo not given) | > 41 |
| NC(=O)CCn1cnc2ccccc21 | 25.5 (≈ 135 µM) |
| CCC(=O)OCC(=O)Nc1cc(S(=O)(=O)N(C)C)ccc1Cl | 46 (≈ 132 µM) |
| Cn1c(=O)[nH]c(NCCc2ccc(O)cc2)c([N+](=O)[O-])c1=O | > 45.9 |
| CCNC(=S)N1CCCCC1CO (stereo not given) | 27.2 (≈ 134 µM) |
| Cc1cc(NC(=O)COc2ccccc2C(N)=O)no1 | 19.7 (≈ 71.6 µM) |
| CCOC(=O)CC(=O)Nc1ccsc1C(N)=O | 36.1 (≈ 141 µM) |
| O=C(COC(=O)c1c[nH]c2ccccc12)NC1CCCC1 | > 42.9 |

| Compound | solubility kinetic [µg/mL] |
| --- | --- |
| Cc1ccc(-c2cc(N)nc(-c3ccccc3)c2)cc1 | < 0.3 |
| C=CCNC(=S)N1CCc2c([nH]c3ccccc23)C1C (stereo not given) | 27.7 (≈ 97.1 µM) |
| Cc1occc1C(=O)N1CCCC(Nc2ccc(F)c(F)c2)C1 (stereo not given) | 46.6 (≈ 145 µM) |
| Cn1cccc1/C=N/NC(=O)Cc1cccs1 | > 37.1 |
| Oc1ccc(/C=N/N2CCCCC2)c(O)c1O | > 35.4 |
| Cn1c(=O)c(Sc2ccccc2)c(O)c2ccccc21 | > 42.5 |
| O=C1N/C(=C/c2cccs2)C(=O)N1Cc1ccc(F)cc1 | < 0.3 |
| CN(c1nc2ccccc2[nH]c1=O)C1CCCCC1 | 2.9 (≈ 11.3 µM) |
| O=[N+]([O-])c1ccc(P(=O)(Cc2ccccc2)c2ccccc2O)cc1 (stereo not given) | 17 (≈ 48.1 µM) |
| COc1ccc(S(=O)(=O)N2CCOCC2)cc1NC(=O)COc1ccc2c(C)cc(=O)oc2c1 | 4.1 (≈ 8.39 µM) |
| COc1ccccc1CNC(=O)c1ccncc1 | > 36.3 |
| OCCC1CN(CC#Cc2ccccc2)CCN1C1CCCC1 (stereo not given) | > 46.9 |
| CC(NC(=O)Cc1ccsc1)c1ccc(F)cc1 (stereo not given) | > 39.5 |
| Cc1c(C(=O)Nc2c(C)n(C)n(-c3ccccc3)c2=O)oc2ccc(Cl)cc12 | > 59.4 |
| CC1CCN(c2cc(Br)c([N+](=O)[O-])cc2F)CC1 | 3.1 (≈ 9.77 µM) |
| COc1cccc(C(=O)C(C#N)=C(SC)SC)c1 | 33.6 (≈ 120 µM) |
| Cc1cc(OC(=O)c2ccc(C)c(C)c2)c([N+](=O)[O-])c(=O)[nH]1 | > 45.3 |
| O=C(NCc1cccs1)c1cccn2c(=O)c3sccc3nc12 | 0.6 (≈ 1.76 µM) |
| Cc1cc(N2C(=O)C(O)=C(C(=O)c3cccs3)C2c2ccc(F)cc2)no1 (stereo not given) | > 57.7 |
| COc1ccc(C2=NOC(COc3ccc([N+](=O)[O-])cc3)C2)cc1 (stereo not given) | < 0.4 |

| Compound | solubility kinetic [µg/mL] |
| --- | --- |
| COCCNC(=O)C(C)OC(=O)C1=Cc2ccccc2OC1 (stereo not given) | > 45.8 |
| O=C(Nc1ccc(NC(=O)C2CC2)cn1)c1ccccc1 | 41.6 (≈ 148 µM) |
| Cc1ccc(OCC(=O)NCCCNC(=O)c2ccc(C)nc2)cc1 | > 51.2 |
| Cc1ccc(S(=O)(=O)NC(C)(C)CSc2ncccn2)cc1 | > 50.6 |
| O=C(Nc1ccc(OC(F)(F)F)cc1)c1ccc2nccnc2c1 | 11.4 (≈ 34.2 µM) |
| O=C(COC(=O)c1ccc(F)cc1)NCCCc1ccccc1 | 5.9 (≈ 18.7 µM) |
| CC1(C)C(=O)N(c2ccccc2)C(=O)c2ccccc21 | 25.8 (≈ 97.2 µM) |
| Cc1ccc(S(=O)(=O)/N=C(\N)c2ccc(Cl)cc2)cc1 | > 46.3 |
| O=C(COC(=O)c1cccc(Cl)c1)Nc1ccc2[nH]c(=O)[nH]c2c1 | 0.8 (≈ 2.31 µM) |
| Cc1ccc(CNS(=O)(=O)c2c(N)n(C)c(=O)n(C)c2=O)cc1 | 41.3 (≈ 122 µM) |
| Cc1ccc(-n2c3nc(=O)n(C)c(=O)c-3cc3ccccc32)cc1 | 12.3 (≈ 38.8 µM) |
| O=C(c1cn(Cc2ccccc2)c2ccccc12)N1CCCCC1 | 30.6 (≈ 96.1 µM) |
| O=C(Nc1cccnc1)c1ccc([N+](=O)[O-])o1 | > 35 |
| CC(=O)c1ccccc1NS(=O)(=O)c1cccc2nsnc12 | 1.5 (≈ 4.5 µM) |
| CC(=O)N(C)c1ccc(NC(=O)C(c2ccccc2)c2ccccc2)cc1 | 40.2 (≈ 112 µM) |
| CCn1c(C)cc(O)c(C(=O)Nc2cccc(Cl)c2)c1=O | < 0.3 |
| Nc1no[n+]([O-])c1-c1ccccc1 | 24.2 (≈ 137 µM) |
| CC(=O)N1CCN(c2nnc(-c3ccccc3)c3ccccc23)CC1 | > 49.9 |
| O=C(Cc1cccs1)NCc1cccc(C(F)(F)F)c1 | 42.1 (≈ 141 µM) |
| O=C(c1ccco1)N1CCN(C(=S)NC2CC3CCC2C3)CC1 (stereo not given) | 46.8 (≈ 140 µM) |
